# Laboratory results from patent US12016905B2, “Pharmaceutical composition for prevention or treatment of preterm birth” (KOREA UNIVERSITY RESEARCH AND BUSINESS FOUNDATION, priority 2019, dated 2024).
# Entries after “also recorded” stand apart in the source; their conditions may differ.
# Key:
# [1] = test system: fibroblasts isolated from cervical cells of a mouse; assay: Western blot of α-SMA and type I collagen in cervical fibroblasts treated with TGF-β1; assay type: cell-based
# cervix of C57BL/6 mice = assay: M/C ratio (α-SMA/type I collagen, Western blot) in cervical tissue after cervical excision and 3 weeks of drug administration; assay type: in vivo, mouse
# Protocol: Sexually mature female C57BL/6 mice were used for experiments in vivo. The laboratory was maintained at a constant temperature (22 to 24° C.) with a 12-hour day/night cycle. Partial cervical tissue excision was performed at each 5-week old. Specifically, each mouse was anesthetized by inhalation of 2 to 4% isoflurane, and then the cervix thereof was grasped by using forceps, and an excision was made to a depth of 1 mm using a scalpel. In order to minimize bleeding after excision, each mouse was compressed to stop bleeding. The length of the cervix was 2.5 mm, about 40% of the cervix was excised, and the average weight of the excised tissues was 7 mg.
# At the same time as the cervical tissue excision, liquid fibronectin, and SB-431542 dissolved in DMSO were injected into the cervix through the vagina using a feeding needle.
# Liquid into the fibronectin (plasma) was infused cervix through the vagina daily for 3 weeks at each dose of 20 mg and 0.2 mg (20 mg, diluted 10 times, expressed as FN (X10)). SB-431542 was dissolved in 5% DMSO, and infused into the cervix through the vagina daily for 3 weeks at each dosage of 20 mg and 0.2 mg (20 mg, diluted 10 times, indicated as SB-431542 (X10). After the drug treatment for 3 weeks, samples were obtained from the proximal cervix and distal cervix regions divided in the cervical tissue (see FIG. 13).
# The protein extraction method for confirming the expression of α-SMA and type I collagen (Collagen I) was as follows. After an RIPA buffer (RIPA lysis buffer, 150 mM NaCl, 1% Triton X-100, 1% SD, 0.1% SDS, 50 mM Tris-13 HCl, 2 mM EDTA) and protease inhibitor cocktail (GenDEPOT, P3100-005) were mixed, 100 ul of the mixture was added to separate cervical tissue in each region and pulverized using a homogenizer. After the pulverized product was left on ice for 40 minutes, centrifugation was performed for 15 minutes using a centrifuge (13,000 rpm, 4 degrees). Only the supernatant was used after storage in a new tube. Protein quantification was carried out by a Bradford method (Protein assay dye reagent concentrate buffer, BioRad).
# Western blot method for confirming the expression of α-SMA and type I collagen was as follows. The extracted protein was loaded on a 10% SDS PAGE gel at 5 μg each and transferred to a nitrocellulose membrane. After blocking with 5% skim milk, α-smooth muscle actin antibody (1:1000, NSJ Bioreagents, V2001) as the primary antibodies, and type I collagen antibody (1:500, Abcam, ab88147), GAPDH (1:1000, Santa Cruz, sc376559) were reacted at 4° ° C.overnight, and anti-mouse IgG (CellNest, USA) as a secondary antibody was added thereto and reacted for 1 hour at room temperature, and then was developed and detected by using an ECL kit (SuperSignal West Pico PLUS Chemiluminescent Substrate, Thermo Scientific).
# For oral administration (PO), the drug was administered to the esophagus through the mouth using a feeding needle at the same time as the cervical tissue excision. SB-431542 was dissolved in 5% DMSO and injected in an amount of 10 mg/kg with each 100 ul for 3 weeks.
# For intraperitoneal infusion (IP), the drug was administered intraperitoneally using an insulin syringe at the same time as the cervical tissue excision. SB-431542 was dissolved in 5% DMSO and infused in an amount of 10 mg/kg with each 100 ul for 3 weeks.
# [2] = test system: fibroblasts isolated from cervical cells of a mouse; assay: Immunofluorescence staining for α-SMA protein in cervical fibroblasts treated with TGF-β1; assay type: cell-based; details: treated simultaneously with TGF-β1 and SB-431542
# Protocol: (§1) The experiment process will be described with reference to FIG. 5. Cells were isolated from the cervixes of 4- to 6-week old C57BL/6 mice and subjected to primary cell culture in 60 mm dishes (step p0). After step […] is performed by culturing for 12 to 15 days, the number of fibroblasts was measured, and fibroblasts were seeded in a 6 well dish at a density of about 0.3×10^6 cells/dish, followed by secondary culture (step p2). After 1 day from the secondary culture, it was treated for 2 hours in a serum-free medium, and then treated with 10 ng/ml of TGF-β1 per dish to induce differentiation into myofibroblasts, and experimental group was treated with SB-431542, which is a TGF-1 inhibitor, at each concentration of 0, 2, 8 and 16
# [3] = test system: fibroblasts isolated from cervical cells of a mouse; assay: mRNA expression level of α-SMA in cervical fibroblasts treated with TGF-β1; assay type: cell-based; details: 8 μM SB-431542 with TGF-β1
# Protocol: as §1
# [4] = test system: fibroblasts isolated from cervical cells of a mouse; assay: Western blot of α-SMA and type I collagen in cervical fibroblasts treated with TGF-β1; assay type: cell-based; remark: listed apart in the source
# Protocol: as §1
# UM. Two days after drug treatment, cells were washed with 10× phosphate buffered saline (PBS; Affymetrix), and proteins were extracted with RIPA buffer. Western blot was performed to investigate the expression levels of α-SMA, a marker of myofibroblasts, and COLI, a marker of collagen.
# As the primary antibodies, α-smooth muscle actin (1:1000) and type I collagen (1:500) antibody were reacted at 4° C. overnight, and as the secondary antibody, anti-mouse IgG (CellNest, USA) was added thereto and was detected after the reaction for 1 hour at room temperature.
# [5] = plasma fibronectin 2 μg/cm2 per well together with TGF-β1
# [6] = intravaginal, 0.2 mg (X10) daily for 3 weeks, versus cervical excision group
# [7] = intravaginal, 20 mg daily for 3 weeks, versus cervical excision group
molecule,measurement,setting,value
plasma fibronectin: fibronectin bovine plasma product purchased from Sigma-Aldrich; polypeptide of SEQ ID NO: 1,collagen expression,[1]; [5],slightly decreased
same,expression level of α-SMA,[1]; [5],decreased as much as in the control group
same,ratio of α-SMA/collagen 1,[1]; [5],reduced
same,M/C ratio,cervix of C57BL/6 mice; [6],decreased
same,M/C ratio,cervix of C57BL/6 mice; [7],decreased
chondroitin sulfate,increase in α-SMA expression by TGF-β1,[1]; 50 μg/ml chondroitin sulfate with TGF-β1,slightly inhibited
"tenascin-C: drug used for wound treatment, purchased from EMD-Millipore",increase in α-SMA expression by TGF-β1,[1]; 2 μg/ml tenascin-C with TGF-β1,slightly inhibited
"NC(=O)c1ccc(-c2nc(-c3ccc4c(c3)OCO4)c(-c3ccccn3)[nH]2)cc1 [SB-431542, 4-(5-benzol [1,3]dioxol-5-yl-4-pyrldin-2-yl-1H-imidazol-2-yl)-benzamide]",fluorescence detection of α-SMA,[2],reduced
same,M/C ratio,"cervix of C57BL/6 mice; intraperitoneal, 10 mg/kg daily for 3 weeks",lower than that of the cervical excision group
same,M/C ratio,cervix of C57BL/6 mice; [6],no significant change
same,M/C ratio,cervix of C57BL/6 mice; [7],no significant change
same,M/C ratio,"cervix of C57BL/6 mice; oral administration, 10 mg/kg daily for 3 weeks",lower than that of the cervical excision group
same,mRNA expression level of α-SMA,[3],no significant change
same,expression of α-SMA protein,"[4]; 8 μM SB-431542 with 10 ng/ml TGF-β1, two days after treatment",decreased; also recorded: significantly reduced
same,collagen 1 expression,[4]; SB-431542 with TGF-β1,no effect
"TGF-β1: transforming growth factor beta1, used to induce differentiation of fibroblasts into myofibroblasts",collagen 1 expression,[4]; TGF-β1 10 ng/ml,no effect
same,expression level of α-SMA,"[4]; TGF-β1 alone, 10 ng/ml",increased
"TGF-β3: drug used for wound treatment, purchased from Sigma-Aldrich (protein, UniProt P10600 301-412, looked up, Transforming growth factor beta-3, drug used for wound treatment, purchased from Sigma-Aldrich) Transforming growth factor …: ALDTNYCFRNLEENCCVRPLYIDFRQDLGWKWVHEPKGYYANFCSGPCPYLRSADTTHSTVLGLYNTLNPEASASPCCVPQDLEPLTILYYVGRTPKVEQLSNMVVKSCKCS",increase in α-SMA expression by TGF-β1,[1]; 10 μg/ml TGF-β3 with TGF-β1,slightly inhibited
